Laboratory results as given in US20130253019A1, “LYSOPHOSPHATIDIC ACID RECEPTOR ANTAGONISTS FOR THE TREATMENT OF CONDITIONS OR DISEASES OF THE EYE” (priority 2010, published 2013).

Assays:
[1] = target: T1, Human LPA1 (Homo sapiens, UniProt Q92633); experiment: LPA1 calcium flux assay; assay type: cell-based; details: CHO cells expressing human LPA1, 10 nM LPA; read-out: Ca Flux IC50 LPA1
T1 construct: the full-length cDNA for human LPA1 was obtained by PCR of the reverse transcription reaction; expressed in transfected cells
T1 sequence (Q92633 whole entry): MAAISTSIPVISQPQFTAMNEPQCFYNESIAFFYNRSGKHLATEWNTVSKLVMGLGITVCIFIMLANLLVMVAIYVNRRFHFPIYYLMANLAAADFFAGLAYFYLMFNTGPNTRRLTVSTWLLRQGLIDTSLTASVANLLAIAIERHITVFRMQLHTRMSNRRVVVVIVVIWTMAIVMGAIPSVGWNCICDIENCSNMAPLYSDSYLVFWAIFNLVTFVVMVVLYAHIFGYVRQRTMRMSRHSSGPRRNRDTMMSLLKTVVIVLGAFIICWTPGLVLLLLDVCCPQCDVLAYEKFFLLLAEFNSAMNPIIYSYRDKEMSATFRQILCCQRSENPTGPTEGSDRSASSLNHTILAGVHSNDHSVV
Procedure: A 1.1 kb cDNA encoding the human LPA1 receptor was cloned from human lung. Human lung RNA (Clontech Laboratories, Inc. USA) was reverse transcribed using the RETROscript kit (Ambion, Inc.) and the full-length cDNA for human LPA1 was obtained by PCR of the reverse transcription reaction. The nucleotide sequence of the cloned human LPA1 was determined by sequencing and confirmed to be identical to the published human LPA1 sequence (An et al. Biochem. Biophys. Res. Commun. 231:619 (1997). The cDNA was cloned into the pcDNA5/FRT expression plasmid and transfected in CHO cells using lipofectamine 2000 (Invitrogen Corp., USA). Clones stably expressing human LPA1 were selected using hygromycin and identified as cells that show Ca-influx in response to LPA.
(§1) Human LPA1 or LPA3 expressing CHO cells are seeded at 20,000-45,000 cells per well in a 96-well poly-D-lysine coated plate one or two days before the assay. Prior to the assay, the cells are washed once with PBS and then cultured in serum-free media for at least 6 hrs and up to 24 hrs. On the day of the assay, a calcium indicator dye (Calcium 5, Molecular Devices) in assay buffer (HBSS with Ca^2+ and Mg^2+ and containing 20 mM Hepes and 0.3% fatty-acid free human serum albumin) is added to each well and incubation continued for 1 hour at room temperature. 10 μl of test compounds in 2.5% DMSO are added to the cells and incubation continued at room temperature for 30 minutes. Cells are the stimulated by the addition of 10 nM LPA and intracellular Ca^2+ measured using the Flexstation 3 (Molecular Devices). IC50s are determined using Symyx Assay Explorer analysis of drug titration curves.

[2] = target: T2, Human LPA3 (Homo sapiens, UniProt Q9UBY5); experiment: LPA3 calcium flux assay; assay type: cell-based; details: CHO cells expressing human LPA3, 10 nM LPA; read-out: Ca Flux IC50 LPA3
T2 construct: The full-length cDNA fragment for human LPA3 was obtained by PCR from the vector; expressed in transfected cells; cDNA from the Missouri S&T cDNA Resource Center
T2 sequence (Q9UBY5 1-353): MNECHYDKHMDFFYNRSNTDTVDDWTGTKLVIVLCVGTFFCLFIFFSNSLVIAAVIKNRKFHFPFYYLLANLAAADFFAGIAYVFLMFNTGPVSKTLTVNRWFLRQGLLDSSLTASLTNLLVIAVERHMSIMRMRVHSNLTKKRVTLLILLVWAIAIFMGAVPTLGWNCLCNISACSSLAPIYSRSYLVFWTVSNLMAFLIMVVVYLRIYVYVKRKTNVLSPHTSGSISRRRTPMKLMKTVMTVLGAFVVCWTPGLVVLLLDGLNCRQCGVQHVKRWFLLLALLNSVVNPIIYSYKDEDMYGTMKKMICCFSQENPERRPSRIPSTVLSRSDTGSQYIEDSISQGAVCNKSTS
Procedure: A vector containing the human LPA3 receptor cDNA was obtained from the Missouri S&T cDNA Resource Center (www.cdna.org). The full-length cDNA fragment for human LPA3 was obtained by PCR from the vector. The nucleotide sequence of the cloned human LPA3 was determined by sequencing and confirmed to be identical to the published human LPA3 sequence (NCBI accession number NM_012152). The cDNA was cloned into the pcDNA5/FRT expression plasmid and transfected in CHO cells using lipofectamine 2000 (Invitrogen Corp., USA). Clones stably expressing human LPA3 were selected using hygromycin and identified as cells that show Ca-influx in response to LPA.
as §1

[3] = target: LPA4 (Homo sapiens, UniProt Q99677); experiment: LPA4 Ca flux assay; assay type: cell-based
Chain of LPA4 (Q99677 whole entry, species assumed): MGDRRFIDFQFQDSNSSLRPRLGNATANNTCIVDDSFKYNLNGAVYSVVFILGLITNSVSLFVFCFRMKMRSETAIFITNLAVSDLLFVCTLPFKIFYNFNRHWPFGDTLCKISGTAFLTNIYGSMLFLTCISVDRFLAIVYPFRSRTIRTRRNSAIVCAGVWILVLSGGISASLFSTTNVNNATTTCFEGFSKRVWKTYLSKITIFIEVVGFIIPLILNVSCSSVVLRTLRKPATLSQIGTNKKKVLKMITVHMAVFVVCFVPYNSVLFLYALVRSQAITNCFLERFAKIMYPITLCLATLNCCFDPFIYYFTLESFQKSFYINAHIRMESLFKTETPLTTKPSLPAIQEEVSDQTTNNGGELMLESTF

[4] = target: T3, human LPA2 (Homo sapiens, UniProt Q9HBW0); experiment: LPA2 calcium flux assay; assay type: cell-based; details: BT-20 cells or B103 cells transiently expressing human LPA2; read-out: Ca Flux IC50 LPA2
T3 construct: expressed in transfected cells; host or cells: B103 cells (transient), or alternatively BT-20 human breast cancer cells (endogenous)
T3 sequence (Q9HBW0 whole entry): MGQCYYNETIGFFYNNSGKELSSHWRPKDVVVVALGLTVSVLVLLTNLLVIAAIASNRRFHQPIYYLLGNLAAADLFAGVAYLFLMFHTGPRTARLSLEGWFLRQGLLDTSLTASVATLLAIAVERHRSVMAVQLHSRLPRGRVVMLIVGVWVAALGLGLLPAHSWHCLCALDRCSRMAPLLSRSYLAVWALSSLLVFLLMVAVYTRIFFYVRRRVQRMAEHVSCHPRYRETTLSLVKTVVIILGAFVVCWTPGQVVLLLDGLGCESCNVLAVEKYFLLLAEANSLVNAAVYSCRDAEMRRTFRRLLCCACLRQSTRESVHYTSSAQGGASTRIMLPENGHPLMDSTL
Procedure: An expression vector encoding the human LPA2 cDNA was transiently transfected into B103 cells using Lipofectamine™ 2000 (Invitrogen) following the manufacturers instruction. On the day before the assay, 30,000-35,000 cells/well were seeded together with 0.2 μl lipofectamine 2000 and 0.2 μg human LPA2 expression vector in 96-well Poly-D-Lysine coated black-wall clear-bottom plates (BD BioCoat) in DMEM+10% FBS. Following an overnight culture, cells were washed once with PBS then cultured in serum-free media for 4 hours prior to start of the calcium flux assay.
LPA2 calcium flux is measured using at least one of two different assays. In one assay, BT-20 human breast cancer cells are seeded at 25,000-35,000 cells per well in 150 μl complete media on Poly-D-Lysine coated black-wall clear-bottom plates. Following an overnight culture, cells are washed once with PBS then serum starved for 4-6 hours prior to the assay. On the day of the assay, a calcium indicator dye (Calcium 5, Molecular Devices) in assay buffer (HBSS with Ca^2+ and Mg^2+ and containing 20 mM Hepes and 0.3% fatty-acid free human serum albumin) is added to each well and incubation continued for 15 minutes at 37° C. 25 μl of test compounds in 2.5% DMSO are added to the cells and incubation continued at 37° C. for 15-30 minutes. Cells are the stimulated by the addition of 100 nM LPA and intracellular Ca^2+ measured using the Flexstation 3 (Molecular Devices). IC50s are determined using Symyx Assay Explorer analysis of drug titration curves In the second assay, B103 cells transiently expressing huma LPA2 are serum starved for 4 hours. A calcium indicator dye (Calcium 4, Molecular Devices) in assay buffer (HBSS with Ca^2+ and Mg^2+ and containing 20 mM Hepes and 0.3% fatty-acid free human serum albumin) is then added to each well and incubation continued for 1 hour at 37° C. 10 μl of test compounds in 2.5% DMSO are added to the cells and incubation continued at room temperature for 30 minutes. Cells are the stimulated by the addition of 10 nM LPA and intracellular Ca^2+ measured using the Flexstation 3 (Molecular Devices). IC50s are determined using Symyx Assay Explorer analysis of drug titration curves.

[5] = target: LPA5 (Homo sapiens, UniProt Q9H1C0); experiment: LPA5 Ca flux assay; assay type: cell-based
Chain of LPA5 (Q9H1C0 whole entry, species assumed): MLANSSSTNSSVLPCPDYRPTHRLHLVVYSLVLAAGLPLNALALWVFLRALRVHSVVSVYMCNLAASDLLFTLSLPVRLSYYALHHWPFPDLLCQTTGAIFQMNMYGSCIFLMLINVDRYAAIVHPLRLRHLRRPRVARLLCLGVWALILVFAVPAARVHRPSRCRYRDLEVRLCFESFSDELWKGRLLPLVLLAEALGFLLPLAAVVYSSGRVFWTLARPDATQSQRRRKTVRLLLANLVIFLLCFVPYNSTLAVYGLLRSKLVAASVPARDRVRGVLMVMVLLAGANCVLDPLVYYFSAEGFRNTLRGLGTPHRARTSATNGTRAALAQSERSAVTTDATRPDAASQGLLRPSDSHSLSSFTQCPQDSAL

[6] = test system: CNV lesion; details: po, 30 mg/kg, 336 h

| IC50 [1] | IC50 [2] | IC50 [3] | IC50 [4] | IC50 [5] | Structure (SMILES) | decrease of CNV lesion volume [6] |
| --- | --- | --- | --- | --- | --- | --- |
| < 200 nM | > 1000 nM | > 1000 nM |  |  | C[C@@H](OC(=O)Nc1cnoc1-c1ccc(-c2ccc(C3(C(=O)O)CC3)cc2)cc1)c1ccccc1 [Compound F, 1-{4′-[4-((R)-1-Phenyl-ethoxycarbonylamino)-isoxazol-5-yl]-biphenyl-4-yl}-cyclopropanecarboxylic acid] |  |
| < 200 nM | 200 to 1000 nM |  | > 1000 nM | > 1000 nM | Cc1noc(-c2ccc(-c3ccc(C4(C(=O)O)CC4)cc3)cc2)c1NC(=O)O[C@H](C)c1ccccc1Cl [Compound E, 1-(4′-{4-[(R)-1-(2-Chloro-phenyl)-ethoxycarbonylamino]-3-methyl-isoxazol-5-yl}-biphenyl-4-yl)-cyclopropanecarboxylic acid] |  |
| < 200 nM | > 1000 nM | > 1000 nM | > 1000 nM | > 1000 nM | Cc1noc(-c2ccc(-c3ccc(CC(=O)O)cc3)cc2)c1NC(=O)O[C@H](C)c1ccccc1Cl [Compound C, (R)-2-(4′-(4-((1-(2-chlorophenyl)ethoxy)carbonylamino)-3-methylisoxazol-5-yl)biphenyl-4-yl)acetic acid] |  |
| < 200 nM | > 1000 nM | > 1000 nM | > 1000 nM | > 1000 nM | Cc1noc(-c2ccc(-c3ccc(C4(c5nc(=O)o[nH]5)CC4)cc3)cc2)c1NC(=O)O[C@H](C)c1ccccc1 [Compound G, (3-Methyl-5-{4′-[1-(5-oxo-2,5-dihydro-[1,2,4]oxadiazol-3-yl)-cyclopropyl]-biphenyl-4-yl}-isoxazol-4-yl)-carbamic acid (R)-1-phenyl-ethyl ester] |  |
| < 200 nM | > 1000 nM | > 1000 nM | > 1000 nM | > 1000 nM | Cc1noc(-c2ccc(-c3ccc(C4(c5nnn[nH]5)CC4)cc3)cc2)c1NC(=O)O[C@H](C)c1ccccc1 [Compound H, (3-Methyl-5-{4′-[1-(1H-tetrazol-5-yl)-cyclopropyl]-biphenyl-4-yl}-isoxazol-4-yl)-carbamic acid (R)-1-phenyl-ethyl ester] |  |
| < 200 nM | > 1000 nM | > 1000 nM | > 1000 nM | > 1000 nM | Cc1noc(-c2ccc(-c3ccc(C4(C(=O)O)CC4)cc3)cc2)c1NC(=O)O[C@H](C)c1ccccc1 [Compound B, (R)-1-(4′-(3-methyl-4-((1-phenylethoxy)carbonylamino)isoxazol-5-yl)biphenyl-4-yl)cyclopropanecarboxylic acid] | 11% |
| < 200 nM | > 1000 nM | > 1000 nM | 200 to 1000 nM | > 1000 nM | Cc1noc(-c2ccc(-c3ccc(C4(C(=O)NS(C)(=O)=O)CC4)cc3)cc2)c1NC(=O)O[C@H](C)c1ccccc1 [Compound D, {5-[4′-(1-Methanesulfonylaminocarbonyl-cyclopropyl)-biphenyl-4-yl]-3-methyl-isoxazol-4-yl}-carbamic acid (R)-1-phenyl-ethyl ester] |  |
| < 200 nM | > 1000 nM | > 1000 nM | > 1000 nM | > 1000 nM | Cc1noc(-c2ccc(-c3ccc(CC(=O)O)cc3)cc2)c1NC(=O)O[C@H](C)c1ccccc1 [Compound A, (R)-2-(4′-(3-methyl-4-((1-phenylethoxy)carbonylamino)isoxazol-5-yl)biphenyl-4-yl)acetic acid] |  |
